Measurements from PMC9995496, “A screen for MeCP2-TBL1 interaction inhibitors using a luminescence-based assay” (Scientific Reports, 2023).
Counter-ions that a name gives are not always drawn. Like-named read-outs stand apart in the source and are kept apart here. Square brackets hold non-standard residues; d marks the D form. Peptide text beside a SMILES is read from it. * marks the point of attachment. Sta = CC(C)C[C@H](N)[C@@H](O)CC(=O)O; Isovaleryl = CC(C)CC(=O)*

Tested on: PRKACA-PRKAR2A interaction (SmBiT-PRKACA / LgBiT-PRKAR2A), protein kinase A
Design: NanoLuc complementation counter-screen in cell extract, PRKACA with PRKAR2A, loss of luminescence, detects NanoLuc interference
Conditions: 0.5 h, 20 µM, inhibitor
[1] = counter-screen for NanoLuc interference
[2] = counter-screen for NanoLuc interference, Inh (PKA)

Inh (PKA) [1]	SMILES	further results
1.801%	CC1COC2(CCN(c3nc(=O)c4cc(C(F)(F)F)cc([N+](=O)[O-])c4s3)CC2)O1 (racemic) [UM0141871:01, BTZ043 Racemate]	–
3.79%	O[C@@H](CNC[C@H](O)[C@H]1CCc2cc(F)ccc2O1)[C@@H]1CCc2cc(F)ccc2O1 (racemic) [UM0142211:01, Nebivolol]	–
43.9%	O=C1NC(=O)C(=Cc2ccc(-c3ccc(F)cc3)o2)S1 (stereo in doubt) [UM0142434:01, CAY10505]	–
9.078%	CN(C)Cc1cccc(N/C(=C2\C(=O)Nc3cc(C(=O)N(C)C)ccc32)c2ccccc2)c1 [BIX02189]	–
14.65%	Oc1ccc(Nc2nc(-c3ccc(Cl)cc3)cs2)cc1 [UM0013692:02, SKI II]	–
10.87%	O=C(Oc1cc(S(=O)(=O)c2ccccc2)ccc1[N+](=O)[O-])c1ccc(Cl)cc1 [UM0041523:03, BTB06584]	–
16.45%	COc1cc2ncnc(Nc3cccc(Cl)c3)c2cc1OC [UM0044591:06, AG-1478]	–
-0.07908%	COc1ccc2[nH]c([S+]([O-])Cc3ncc(C)c(OC)c3C)nc2c1 (stereo not drawn) [UM0048901:05, Omeprazole]	–
0.444%	OC[C@@H](O)[C@@H](O)[C@@H](O)CO [UM0050273:04, Ribitol]	–
-1.935%	OC[C@@H](O)[C@H](O)[C@@H](O)CO [UM0050273:05, Xylitol]	–
23.18%	Oc1c2ccccc2c2c3c(cccc13)N=N2 [UM0051399:06, SP 600125]	–
1.648%	Cn1c(=O)c2c(ncn2CC(O)CO)n(C)c1=O (stereo not drawn) [UM0052188:04, Dyphylline]	–
–	COC(=O)C1=CCCN(C)C1 [UM0053253:04, Arecoline hydrobromide]	Inh (PKA): -0.2973%
77.71%	CC(C)(C)c1cc(C(=O)/C(C#N)=N/Nc2cccc(Cl)c2)no1 [UM0055456:02, ESI-09]	–
7.48%	O=C(O)CCc1nc(-c2ccccc2)c(-c2ccccc2)o1 [UM0056108:04, Oxaprozin]	–
–	CN(C)NC(=O)CCC(=O)O [UM0056235:02, Daminozide]	Inh (PKA): 2.677%
10.75%	CCOC(=O)c1ccc(NC2CCCCC2)c(N)c1 [UM0065946:02, Ferrostatin-1 (Fer-1)]	–
12.95%	CC(=O)Nc1ccc(NC(=S)NC(=O)c2ccc(C(C)(C)C)cc2)cc1 [UM0075879:02, Tenovin-1]	–
2.953%	CCN(CC)CCOC(=O)C(c1ccccc1)c1ccccc1 [UM0118069:03, Adiphenine HCl]	–
17.63%	COc1ccc(C(Cl)=C(c2ccc(OC)cc2)c2ccc(OC)cc2)cc1 [UM0118083:03, Chlorotrianisene]	–
24.16%	CCCCC(CC)CNC(=N)NC(=N)NCCCCCCNC(=N)NC(=N)NCC(CC)CCCC (stereo not drawn) [UM0118099:03, Alexidine dihydrochloride]	–

Inh (PKA) [1]	SMILES	further results
15.72%	CN(C)CCCN1c2ccccc2Sc2ccc(Cl)cc21 [UM0118114:03, Chlorpromazine HCl]	–
16.35%	Cc1oncc1C(=O)Nc1ccc(C(F)(F)F)cc1 [UM0118141:03, Leflunomide]	–
–	O=C(O)Cc1ccccc1Nc1c(Cl)cccc1Cl [UM0118146:04, Diclofenac Sodium]	Inh (PKA) [2]: 5.073%
0.6753%	Cn1c(=O)c2[nH]cnc2n(C)c1=O [UM0118147:03, Aminophylline]	–
14.84%	C=C(C)[C@@H]1CC[C@]2(C(=O)O)CC[C@]3(C)[C@H](CC[C@@H]4[C@@]5(C)CC[C@H](O)C(C)(C)[C@@H]5CC[C@]43C)[C@@H]12 [UM0118149:03, Betulinic acid]	–
5.226%	C[C@H](CS)C(=O)N1CCC[C@H]1C(=O)O [UM0118157:03, Captopril]	–
14.38%	CCCC(C(=O)OCCN(CC)CC)(c1ccccc1)c1ccccc1 [UM0118177:04, SKF 525A (hydrochloride)]	–
27.31%	OCCN(CCO)c1nc(N2CCCCC2)c2nc(N(CCO)CCO)nc(N3CCCCC3)c2n1 [UM0118197:03, Dipyridamole]	–
–	NCC1(CC(=O)O)CCCCC1 [UM0118203:03, Gabapentin]	Inh (PKA) [2]: 0.7345%
21.36%	CCN(CC)C(=S)SSC(=S)N(CC)CC [UM0118234:04, Disulfiram]	–
16.36%	CC(C)C(=O)Nc1ccc([N+](=O)[O-])c(C(F)(F)F)c1 [UM0118278:03, Flutamide]	–
3.952%	CN(C)CCCN1c2ccccc2CCc2ccccc21 [UM0118324:03, Imipramine (hydrochloride)]	–
8.731%	COC(=O)Nc1nc2cc(C(=O)c3ccccc3)ccc2[nH]1 [UM0118348:03, Mebendazole]	–
-1.159%	COc1ccc2[nH]cc(CCNC(C)=O)c2c1 [UM0118349:03, Melatonin]	–
4.028%	CNCCC=C1c2ccccc2CCc2ccccc21 [UM0118370:03, Nortriptyline (hydrochloride)]	–
-0.007894%	C#CCN(C)Cc1ccccc1 [UM0118374:03, Pargyline (hydrochloride)]	–
11.2%	O=c1[nH]c2ccccc2n1C1CCN(CCCC(c2ccc(F)cc2)c2ccc(F)cc2)CC1 [UM0118378:03, Pimozide]	–
-1.554%	Cc1ncc(C[n+]2csc(CCO)c2C)c(N)n1 [UM0118406:03, Thiamine HCl (Vitamin B1)]	–
2.527%	Nc1ccc(S(=O)(=O)Nc2ccnn2-c2ccccc2)cc1 [UM0118414:03, Sulfaphenazole]	–
1.702%	Nc1nc(N)c2nc(-c3ccccc3)c(N)nc2n1 [UM0118431:03, Triamterene]	–
8.71%	CN1CCN(CCCN2c3ccccc3Sc3ccc(C(F)(F)F)cc32)CC1 [UM0118432:03, Trifluoperazine 2HCl]	–

Inh (PKA) [1]	SMILES	further results
23.02%	Clc1ccccc1CN1CCc2sccc2C1 [UM0118440:03, Ticlopidine HCl]	–
0.5127%	CCc1nc(N)nc(N)c1-c1ccc(Cl)cc1 [UM0118442:03, Pyrimethamine]	–
19.56%	Cc1cccc(Nc2ccccc2C(=O)O)c1C [UM0118444:03, Mefenamic Acid]	–
11.82%	CN1CCN2c3ccccc3Cc3ccccc3C2C1 (stereo not drawn) [UM0118451:03, Mianserin HCl]	–
-0.1303%	C[N+]1(C)CCC(=C(c2ccccc2)c2ccccc2)CC1 [UM0118457:03, Diphemanil Methylsulfate]	–
5.004%	COc1ccc2c(c1)c(CC(=O)O)c(C)n2C(=O)c1ccc(Cl)cc1 [UM0118515:03, Indomethacin]	–
82.23%	CS(=O)(=O)Nc1ccc([N+](=O)[O-])cc1Oc1ccccc1 [UM0118531:03, Nimesulide]	–
1.558%	CCCCOc1ccc(CC(=O)NO)cc1 [UM0118579:03, Bufexamac]	–
2.877%	CCCCNc1cc(C(=O)O)cc(S(N)(=O)=O)c1Oc1ccccc1 [UM0118581:03, Bumetanide]	–
1.204%	CC(C)CC(=O)N[C@H](C(=O)N[C@H](C(=O)N[C@@H](CC(C)C)[C@@H](O)CC(=O)N[C@@H](C)C(=O)N[C@@H](CC(C)C)[C@@H](O)CC(=O)O)C(C)C)C(C)C [UM0118622:03, Pepstatin A] (Isovaleryl-VV[Sta]A[Sta]-OH)	–
-0.4014%	C[C@](N)(Cc1ccc(O)c(O)c1)C(=O)O [UM0118624:04, Methyldopa]	–
1.154%	Nc1c2c(nc3ccccc13)CCCC2 [UM0118625:03, Tacrine hydrochloride]	–
10.49%	C#CCN(C)CCCOc1ccc(Cl)cc1Cl [UM0118650:03, Clorgyline (hydrochloride)]	–
42.12%	COc1cccc2c1C(=O)c1c(O)c3c(c(O)c1C2=O)C[C@@](O)(C(C)=O)C[C@@H]3O[C@H]1C[C@H](N)[C@H](O)[C@H](C)O1 [UM0118677:04, Daunorubicin HCl]	–
5.529%	CNCCC(Oc1ccc(C(F)(F)F)cc1)c1ccccc1 (stereo not drawn) [UM0118682:03, Fluoxetine HCl]	–
6.12%	CC(=O)Oc1cc(C(F)(F)F)ccc1C(=O)O [UM0118728:03, Triflusal]	–
-0.09679%	CCCc1ncc(C[n+]2ccccc2C)c(N)n1 [UM0118750:03, Amprolium HCl]	–
1.197%	Cc1cc2c(cc1S(N)(=O)=O)S(=O)(=O)CCC2 [UM0118751:03, Meticrane]	–
2.176%	COc1cc2nc(N3CCN(C(=O)C4COc5ccccc5O4)CC3)nc(N)c2cc1OC (stereo not drawn) [UM0118850:03, Doxazosin Mesylate]	–
-0.9742%	NS(=O)(=O)c1cc(Cl)c(Cl)c(S(N)(=O)=O)c1 [UM0118893:03, Dichlorphenamide]	–

SMILES	Inh (PKA) [1]	further results
Fc1cc(F)c2c(c1)[C@H]1C=CC[C@H]1C(c1cccnc1)N2 (mixture of isomers) [UM0142231:01, Golgicide A]	20.05%	–
CC(=O)N1CCN(c2ccc(OC[C@@H]3CO[C@@](Cn4ccnc4)(c4ccc(Cl)cc4Cl)O3)cc2)CC1 (racemic) [UM0118636:05, Ketoconazole]	5.554%	–
O=C(O)c1ccccc1O [UM0038620:02, Salicylic acid]	0.4961%	–
CN(C)CCC=C1c2ccccc2CCc2ccccc21 [UM0118081:03, Amitriptyline HCl]	6.05%	–
CC[N+](C)(C)c1cccc(O)c1 [UM0118243:03, Edrophonium (chloride)]	-0.559%	–
CC[N+](CC)(CC)CCOc1cccc(OCC[N+](CC)(CC)CC)c1OCC[N+](CC)(CC)CC [UM0118287:03, Gallamine Triethiodide]	0.3342%	–
COc1ccc2c(c1)[nH]c1c(C)nccc12 [UM0118303:03, Harmine hydrochloride]	2.69%	–
COC(=O)Nc1nc2cc(C(=O)c3cccs3)ccc2[nH]1 [UM0118368:03, Nocodazole]	9.707%	–
C1CCc2nnnn2CC1 [UM0118375:03, Pentylenetetrazole]	-0.7973%	–
Cc1cc2c(C(C)C)c(O)c(O)c(C=O)c2c(O)c1-c1c(C)cc2c(C(C)C)c(O)c(O)c(C=O)c2c1O [UM0118855:03, Gossypol]	56.08%	–
